Assay results as given in patent US10702530B2, “Screening method” (Hoffmann-La Roche Inc., priority 2013, dated 2020).

Columns and labels:
[1] = system: FoxM1A mRNA; assay: Upregulation of FoxM1A mRNA by RT-qPCR in human fibroblasts; assay type: cell-based; conditions: Fibroblast, 24 hours, Hill fit, read-out: EC50 for increased expression of FoxM1A mRNA including exon 9
Method: (§1) FIGS. 1A, 1B and 1C. Induction of alternative splicing of FoxM1 towards FoxM1A in fibroblasts. Human fibroblasts were incubated with cpds. 1-4 at different doses for 24 hours, and changes in FoxM1A RNA (containing exon A2) and FoxM1B/C (lacking exon A2) mRNA expression were assessed by RT-qPCR. Dose response curves were fitted to a Hill binding equation to estimate the EC50. FIG. 1A., upregulation of FoxM1A mRNA; FIG. 1B., downregulation of FoxM1B/C mRNA; FIG. 1C., Correlation of EC50 values for FoxM1A upregulation and FoxM1B/C downregulation. Data represent means±SEM of 4 independent observations.
(§2) To investigate an effect on splicing of FoxM1, human fibroblasts were treated for 24 hours with cpds. 1-4 in dose response, and analysed by RT-qPCR for presence of mRNA including (FoxM1A) or excluding (FoxM1B/C) the Δ9 exon. The resulting dose response curves were fitted to a Hill binding equation. […] 1, 2, 3 and 4, respectively. […] 1, 2, 3 and 4, respectively.
(§3) Fibroblasts, at 10000 cells per cm^2 were treated with varying doses of compounds ([…]) for 24 hours. RNA extraction was performed as per instructions mentioned in the Ambion® Cells-to-CT™ Kits from Applied Biosystems®. RNA samples were frozen at −20° C. until further analysis. Relative expression levels of FoxM1A or FoxM1B/C along with GAPDH for internal control, was measured using one-step multiplex reverse transcription-polymerase chain reaction (RT-PCR). TaqMan® FAM probes were used for relative quantitation of FoxM1A or FoxM1B/C expression levels and TaqMan® VIC probes were used for relative quantitation of human GAPDH levels. The fidelity of the amplification methods was determined using the ΔΔCt relative quantification method for quantitative PCR.

[2] = system: FoxM1B/C mRNA; assay: Downregulation of FoxM1B/C mRNA by RT-qPCR in human fibroblasts; assay type: cell-based; conditions: Fibroblast, 24 hours, Hill fit, read-out: EC50 for decline of FoxM1B/C mRNAs lacking exon 9
Method: as §1, §2, §3

[3] = system: human fibroblasts; assay: Micronuclei induction (MNT) in fibroblasts; assay type: cell-based; conditions: dose response, 2% cut-off
Method: (§4) FIGS. 2A, 2B and 2C. Induction of proliferation arrest and cell death by cpds. Alternating FoxM1 splicing towards FoxM1A in fibroblasts. Human fibroblasts were incubated with cpds. 1-4 at different doses for 5 days (120 hours), and changes in cellular impedance (Cell Index) were assessed online. Data are expressed as delta Cell Index after normalization for the starting value of each well. Data at 72, 96 and 120 hour time points (see arrows) were averaged for quantification. FIG. 2A, Micronuclei induction (MNT) in fibroblasts with increasing doses of cpd. 1-4; FIG. 2B, Dose-dependent induction of cytotoxicity by cpds. 1-4. expressed as % of untreated control after 24 hours. A cut-off at 75% (ED75%, dashed line) defined the concentration at which a meaningful impact on proliferation and cell survival was observed. […] 1-4. expressed as % of untreated control. […]
(§5) For investigation of the effect of altered FoxM1 expression on micronucleus induction (MNT) and cell survival, human fibroblasts were treated for up to 120 hours with cpds. 1-4 in dose response, and MNT, cytotoxicity or Cell Index were assessed on the xCELLigence platform, monitoring proliferation rates and cell death online. To define a quantitative measure for cytotoxic effects, a 2% cut-off for MNT induction (FIG. 2A), a 75% cut-off for cell survival (EC75%), and a 75% cut-off was estimated (ED75%). […]

[4] = system: human fibroblasts; assay: Cytotoxicity in fibroblasts; assay type: cell-based; conditions: dose response, 75% cut-off, 24 hours
Method: as §4, §5

[5] = system: human fibroblasts; assay: Cell Index (cellular impedance, xCELLigence) in fibroblasts; assay type: cell-based; conditions: up to 120 hours, 75% cut-off
Method: as §4, §5

[6] = system: Human BT474 breast cancer cells; assay: Western blot, actin protein in BT474 breast cancer cells; assay type: cell-based; conditions: BT474, 10 μM
Method: (§6) Upregulation of FoxM1A protein correlates with cytotoxicity in breast cancer cells. Human BT474 breast cancer cells were treated with cpd. 2 at 10 μM for 1 or 2 days under proliferating conditions (in the presence of serum), and total protein extracts analyzed by SDS PAGE and Western Blot for FoxM1A and actin protein levels. To assess if increase in FoxM1A protein by alternative splicing of FoxM1 towards FoxM1A induces cell death in a cancer condition, human breast cancer cells (BT474) were treated to modulate FoxM1 expression, and FoxM1A protein levels were assessed at day 1 and 2 of treatment. On day 1 and 2 under control conditions, FoxM1A was detectable by Western Blot, but at low concentrations. Treatment with cpd. […] 2 at 10 μM, whereas FoxM1A levels were increased in the same samples by nearly 3-fold. When normalized to actin, FoxM1A protein levels increased by 28-fold by treatment with cpd. 2 at 10 μM. […] Data represent means±SEM of 3 independent observations. Statistical comparison was performed by one-way ANOVA followed by Dunnet's post-hoc test. *, p<0.05, ***, p<0.001.
(§7) Human myoblasts were acquired from ECACC, BT474 cells were obtained from ATCC, and were cultivated according to supplier protocols. […] Fluorescence was acquired with the Odyssey imaging system (Licor Biosciences), FoxM1A intensity was normalized for actin. Data were analyzed using GraphPad software.

[7] = system: FoxM1A protein; assay: Western blot, FoxM1A protein in BT474 breast cancer cells; assay type: cell-based, human; conditions: BT474, 10 μM
Method: as §6
Human myoblasts were acquired from ECACC, BT474 cells were obtained from ATCC, and were cultivated according to supplier protocols. For experimental purpose, human myoblasts were cultivated for 5 days and were treated with varying doses of compounds (0.1-10 μM). BT474 cells were cultivated for up to 2 days and treated with compounds at 10 μM. For Western blot analyses, myoblast cells treated over 5 days or BT474 cells treated for 2 days were lysed in boiling Laemmli buffer (Bio-Rad) containing 100 mM dithiothreitol. SDS PAGE blots were probed with rabbit-anti FoxM1 antibody (Cell Signaling Technology, 1:1000), goat anti-Actin (Santa Cruz Biotechnology, 1:20000) and Alexa680/800 secondary antibodies (Molecular Probes, 1:10,000). Fluorescence was acquired with the Odyssey imaging system (Licor Biosciences), FoxM1A intensity was normalized for actin. Data were analyzed using GraphPad software.

[8] = system: human primary myoblasts; assay: Western blot, actin protein (surrogate for cell number) in proliferating human myoblasts; assay type: cell-based; conditions: proliferating conditions (serum), 5 days, doses up to 10 μM
Method: (§8) FIGS. 5A, 5B and 5C. Upregulation of FoxM1A protein correlates with cytotoxicity in myoblasts. Human myoblasts were treated with cpd. 3 (0.1, 1 and 10 μM) for 5 days under proliferating conditions (in the presence of serum), and total protein extracts analyzed by SDS PAGE and Western Blot for FoxM1A and actin protein levels. FIG. 5A, FoxM1A and actin Western blots from samples treated without (control) or with cpd. 3 (0.1, 1 and 10 μM); FIG. 5B, Protein levels of actin (surrogate for cell number); FIG. 5C, FoxM1A/actin ratio. Data represent means±SEM of 3 independent observations. Statistical comparison was performed by one-way ANOVA followed by Dunnet's post-hoc test. *, p<0.05, **, p<0.01, ***, p<0.001.
(§9) To assess if alternative splicing of FoxM1 towards FoxM1A results in meaningful changes in the protein levels and cell death, human primary myoblasts were treated under proliferating conditions to modulate FoxM1 expression and evaluate its consequence. Under proliferative conditions, FoxM1A was detectable by Western Blot, but at low concentrations […]. Treatment with cpd. […]
as §7

[9] = system: FoxM1A protein; assay: Western blot, FoxM1A protein in proliferating human myoblasts; assay type: cell-based; conditions: proliferating conditions (serum), 5 days, highest dose (10 μM)
Method: as §8, §9, §7

[10] = system: human primary myoblasts; assay: Western blot, actin protein in differentiating (non-proliferating) human myoblasts; assay type: cell-based; conditions: differentiating conditions (no serum), 5 days, doses up to 10 μM
Method: (§10) FIGS. 6A and 6B. No change in FoxM1A protein and no cytotoxicity in non-proliferating myoblasts. Human myoblasts were treated with cpd. 3 (0.1, 1 and 10 μM) for 5 days under differentiating conditions (in the absence of serum), and total protein extracts analyzed by SDS PAGE and Western Blot for FoxM1A and actin protein levels. FIG. 6A, FoxM1A and actin Western blots from samples treated without (control) or with cpd. 3 (0.1, 1 and 10 μM). Note that FoxM1A protein was undetectable; FIG. 6B, Protein levels of actin. Data represent means±SEM of 3 independent observations. Statistical comparison was performed by one-way ANOVA followed by Dunnet's post-hoc test.
(§11) To assess if alternative splicing of FoxM1 towards FoxM1A is present also in cells that are not proliferating, the same human primary myoblasts were differentiated to investigate if FoxM1 expression is also present and can be modulated similarly under those conditions. Under differentiating conditions, FoxM1A was undetectable by Western Blot (FIG. 6A). Treatment with cpd.
as §7

[11] = system: FoxM1A protein; assay: Western blot, FoxM1A protein in differentiating (non-proliferating) human myoblasts; assay type: cell-based; conditions: differentiating conditions (no serum), 5 days, doses up to 10 μM
Method: as §10, §11, §7

Question: How did the EC50 [1] turn out when `CCN1CCC(c2cc(C)c3nc(-c4cc5c(C)nc(C)cn5n4)cc(=O)n3c2)CC1` [Compound 1, 2-(4,6-dimethylpyrazolo[1,5-a]pyrazin-2-yl)-7-(1-ethylpiperidin-4-yl)-9-methyl-4H-pyrido[1,2-a]pyrimidin-4-one] was run?
Answer: 246 nM

Question: And the EC50 [2]?
Answer: 724 nM

Question: How did the EC50 [1] turn out when `CCc1nc(C)cn2nc(-c3cc(=O)n4cc(C5=CCNCC5)cc(C)c4n3)cc12` [Compound 2, 2-(4-ethyl-6-methylpyrazolo[1,5-a]pyrazin-2-yl)-9-methyl-7-(1,2,3,6-tetrahydropyridin-4-yl)-4H-pyrido[1,2-a]pyrimidin-4-one] was run?
Answer: 16 nM

Question: What about the EC50 [2] of the same compound?
Answer: 14 nM

Question: What about the “Potency in MNT (micronucleus induction)” value [3] of the same compound?
Answer: most potent

Question: And the Potency in cytotoxicity [4]?
Answer: most potent

Question: And the “Potency in reduction of Cell Index” value [5]?
Answer: most potent

Question: What about the “Reduction of actin protein” value ([6]; day 1) of the same compound?
Answer: 18%

Question: And the “Reduction of actin protein” value ([6]; day 2)?
Answer: more than 90%

Question: What about the “Increase of FoxM1A protein levels normalized to actin” value [7] of the same compound?
Answer: 28 fold

Question: What about the “Effect on FoxM1A protein” value ([7]; day 1) of the same compound?
Answer: did not have any effect

Question: And the “Increase of FoxM1A protein levels” value ([7]; day 2 (same samples))?
Answer: ~3 fold

Question: For `Cc1cn2nc(-c3cc(=O)n4cc(N5CCN(C)CC5)ccc4n3)cc2c(C)n1` [Compound 3, 2-(4,6-dimethylpyrazolo[1,5-a]pyrazin-2-yl)-7-(4-methylpiperazin-1-yl)-4H-pyrido[1,2-a]pyrimidin-4-one], which EC50 [1] is on record?
Answer: 1210 nM

Question: And the EC50 [2]?
Answer: 3540 nM

Question: What about the “Reduction of actin protein level compared to controls” value [8] of the same compound?
Answer: 6 fold

Question: And the “Increase of FoxM1A protein level normalized to actin” value [9]?
Answer: 30 fold

Question: What about the “Actin protein level compared to controls” value [10] of the same compound?
Answer: not altered

Question: And the “FoxM1A levels normalized to actin” value [11]?
Answer: undetectable

Question: Which EC50 [1] does the source give for `Cc1cn2nc(-c3cc(=O)n4cc(N5CCNCC5)ccc4n3)cc2c(C)n1` [Compound 4, 2-(4,6-dimethylpyrazolo[1,5-a]pyrazin-2-yl)-7-(piperazin-1-yl)-4H-pyrido[1,2-a]pyrimidin-4-one] here?
Answer: 68 nM

Question: What about the EC50 [2] of the same compound?
Answer: 104 nM

Question: And the “Potency in MNT (micronucleus induction)” value [3]?
Answer: most potent

Question: What about the Potency in cytotoxicity [4] of the same compound?
Answer: most potent

Question: And the “Potency in reduction of Cell Index” value [5]?
Answer: most potent
